For 88 compounds, Papp results are on record in PubChem BioAssay AID1645871.

For this series the following is noted: pampa; pH 5.0; 30.0 min; 50.0 µM.

Some results are limits rather than exact numbers.

On to `CCOc1ccc(Nc2nc(C)c(NC(=O)c3ccc(C)cc3)c(Nc3ccc(OCC)cc3)n2)cc1`, for which the Papp (in general, the rate of passage across a membrane or cell layer, normalised by area and donor concentration) stood at 59 ×10⁻⁶ cm/s.

The compound `O=C(c1ccc2c(c1)OCO2)N1CCC(Cc2nc(-c3cnccn3)no2)CC1` yielded an apparent permeability (Papp) of 44 ×10⁻⁶ cm/s.

Compound `O=C(CCCN1CCC(O)(c2ccc(Cl)cc2)CC1)c1ccc(F)cc1` registered a Papp of 396 ×10⁻⁶ cm/s.

Compound `CN(C)c1ccc(-c2cc[nH]c(=O)c2N)cc1` displayed a Papp of 171 ×10⁻⁶ cm/s.

Regarding `COc1ccc(-c2cc(-c3ccccc3)nc(SCC(=O)Nc3ccccc3C)c2C#N)cc1`, the Papp was 587 ×10⁻⁶ cm/s.

`COc1ccc(-n2c(C)c(C(C)=O)c3cc(OC(=O)COc4ccccc4)ccc32)cc1` showed a Papp of more than 1000 ×10⁻⁶ cm/s.

On to `COc1ccc(-n2nc(C3CCCN(C(=O)c4cccc(OC)c4)C3)[nH]c2=O)cc1` (stereo not drawn), for which the Papp was determined as 431 ×10⁻⁶ cm/s.

In turn, `O=C(O)c1ccc(-c2c[nH]c3ncc(-c4ccccc4)cc23)cc1C1CCCC1` came in with a Papp of 400 ×10⁻⁶ cm/s.

`Cn1c(=O)c2c(-c3ccc(Br)cc3)n(CCc3ccccc3)cc2n(C)c1=O` yielded a Papp of 591 ×10⁻⁶ cm/s.

As for `COc1ccccc1-c1nc(NCc2ccc(-c3cccnc3)cc2)c2ccccc2n1`, the Papp came to 727 ×10⁻⁶ cm/s.

Turning to `COc1ccc(-n2nc(C3CCCN(C(=O)Cc4ccc(F)cc4)C3)[nH]c2=O)cc1` (stereo not drawn), the Papp was 524 ×10⁻⁶ cm/s.

The compound `COc1ccc2[nH]cc(CCNC(=O)c3cnn(-c4ccc(C)cc4)c3C3CCN(C(=O)OC(C)(C)C)CC3)c2c1` gave a Papp of 689 ×10⁻⁶ cm/s.

Compound `COc1cccc(CNCc2cccn2-c2nnc(N3CCN(c4ccccc4)CC3)s2)c1` gave a Papp of 924 ×10⁻⁶ cm/s.

With `Cc1ccc(-c2c(CN3CCN(c4cccc(C(F)(F)F)c4)CC3)csc2C)cc1`, the Papp is 35 ×10⁻⁶ cm/s.

In the case of `CN1CCN(Cc2ccc(-c3ccc(C(C)(C)C#N)cc3)nc2)CC1`, the apparent permeability coefficient (Papp) amounted to 47.3 ×10⁻⁶ cm/s.

Turning to `COc1ccc(C(=O)N[C@@H]2CCC[C@@H]2C(=O)N2CCC(Cc3ccccc3)CC2)cc1`, the Papp was more than 1000 ×10⁻⁶ cm/s.

Regarding `Cc1ccc2oc3c(c(=O)c2c1)C(c1ccc(O)cc1)N(CCCN(C)C)C3=O` (stereo not drawn), the Papp was determined as 3.9 ×10⁻⁶ cm/s.

`CC(C)c1nc(CN(C)C(=O)N[C@H](C(=O)N[C@@H](Cc2ccccc2)C[C@H](O)[C@H](Cc2ccccc2)NC(=O)OCc2cncs2)C(C)C)cs1`: the Papp was 844 ×10⁻⁶ cm/s.

Regarding `C[C@@H](O)CNC(C)(C)CC(=O)N[C@@H]1CCc2ccccc2N(Cc2ccc(-c3ccccc3-c3nn[nH]n3)cc2)C1=O`, the Papp turned out to be 5.85 ×10⁻⁶ cm/s.

As for `Fc1ccc(CNc2cc3c(cn2)CN(Cc2ccncc2)CCN3)cc1`, the Papp was found to be 14.3 ×10⁻⁶ cm/s.

With `Cn1c(CN2CCCCC2)nc2cc(NC(=O)c3cccc(Br)c3)ccc21`, the Papp turned out to be 178 ×10⁻⁶ cm/s.

Regarding `Cc1cnc(-c2ccccc2C(C)C)nc1NCc1ccc(-n2ccnn2)cc1`, the Papp came out at 663 ×10⁻⁶ cm/s.

In turn, `CCC(=O)NC(c1ccc(OC)cc1)c1cc(Cl)c2cccnc2c1O` (stereo not drawn) came in with a Papp of 5.75 ×10⁻⁶ cm/s.

`CCOC(=O)Nc1ccc(NCc2ccc(F)cc2)nc1N` gave a Papp of 142 ×10⁻⁶ cm/s.

In turn, `COc1ccc(C)cc1NC(=O)c1cnc(-c2ccc(F)cc2)nc1-c1ccncc1` yielded a Papp of 926 ×10⁻⁶ cm/s.

`O=C(NCCCNc1nc(Nc2cccc(CN3CCOCC3)c2)ncc1C1CC1)C1CCC1` registered a Papp of 8.82 ×10⁻⁶ cm/s.

Compound `OC1(c2ccc(Cl)cc2)CCN(Cc2c[nH]c3ccccc23)CC1` came in with a Papp of 419 ×10⁻⁶ cm/s.

`COc1cc(C(=O)NC2CCCc3c2[nH]c2c(Cl)cccc32)cc(OC)c1OC` (stereo not drawn): the Papp is 384 ×10⁻⁶ cm/s.

`CNc1oc(-c2cccc3ccccc23)nc1C#N` came in with a Papp of 645 ×10⁻⁶ cm/s.

Consider `Cc1nn2c(c1-c1ccccc1Oc1ccccc1)N(Cc1ccccc1O)CCC2`, for which the Papp came out at 879 ×10⁻⁶ cm/s.

Turning to `C[C@H]1CN(C(=O)c2nn(C)c3ccccc23)C[C@@H]1c1nc(-c2cccnc2)no1`, the Papp worked out at 739 ×10⁻⁶ cm/s.

Compound `COc1ccc(NC(=O)CCCc2nnc3n(CCC(C)C)c(=O)c4sccc4n23)cc1Cl` registered a Papp of more than 1000 ×10⁻⁶ cm/s.

On to `Cc1noc(C)c1Cc1ccc(C(=O)N2CCc3c(nc4cc(-c5ccccc5)[nH]n4c3=O)C2)o1`, for which the Papp was 9.03 ×10⁻⁶ cm/s.

For `COc1ccc(-c2ccc3ncc(Nc4cccnc4OC)n3n2)cn1`, the Papp amounted to 758 ×10⁻⁶ cm/s.

Turning to `COc1ccc(C(=O)NC2CCCc3c2[nH]c2ccccc32)cc1OC` (stereo not drawn), the Papp came out at 238 ×10⁻⁶ cm/s.

The compound `O=C1Nc2ccc(-c3cccc(C(F)(F)F)c3)cc2C(=O)N2CCN(C(=O)COc3ccccc3)C[C@H]12` had a Papp of 859 ×10⁻⁶ cm/s.

Compound `COc1ccc(C)cc1NS(=O)(=O)c1ccc(-c2cnc(C3CC3)o2)cc1` yielded a Papp of 883 ×10⁻⁶ cm/s.

Compound `COc1ccc(-c2ccc3ncc4c(c3c2)n(-c2ccc(N3CCNCC3)c(C(F)(F)F)c2)c(=O)n4C)cn1` gave a Papp of 153 ×10⁻⁶ cm/s.

Compound `CN(C)CCCn1cc(C2=C(c3c[nH]c4ccccc34)C(=O)NC2=O)c2ccccc21` displayed a Papp of 39.3 ×10⁻⁶ cm/s.

As to `CCc1ccc(C2C(C(=O)Nc3ccccc3OC)=C(C)Nc3c(C(=O)Nc4ccc(C)cc4)cnn32)cc1` (stereo not drawn), the Papp was found to be 288 ×10⁻⁶ cm/s.

The compound `COCCNc1ncc(-c2cccc(O)c2)c2c1OCC2` gave a Papp of 77 ×10⁻⁶ cm/s.

`C[C@]1(CO)CN(c2cc(C(=O)Nc3ccc4c(c3)-c3c(c(C(N)=O)nn3-c3ccc(F)cc3)CC4)c(Cl)cn2)C[C@@]1(C)CO`: the Papp came to 45.6 ×10⁻⁶ cm/s.

With `CC/C=C\C/C=C\C/C=C\C/C=C\C/C=C\C/C=C\CCC(=O)NCCO`, the Papp was determined as 19.5 ×10⁻⁶ cm/s.

`CCOc1ccc(C2C(C(=O)Nc3ccccc3OC)=C(C)Nc3c(C(=O)Nc4cccc(C)c4)cnn32)cc1` (stereo not drawn) showed a Papp of 170 ×10⁻⁶ cm/s.

`CC(C)c1ccc(OCc2nc3c(n2Cc2ccccc2)C(=O)N(CC2CCOCC2)CCN3)cc1` returned a Papp of 643 ×10⁻⁶ cm/s.

Compound `c1ccc(CNc2cc3c(cn2)CN(Cc2cccnc2)CCN3)cc1` yielded a Papp of 15.8 ×10⁻⁶ cm/s.

`COc1ccc(CN2CCNc3cc(Nc4ccccc4)ncc3C2)cn1` showed a Papp of 2.38 ×10⁻⁶ cm/s.

`CC1CCN(S(=O)(=O)c2ccc3c(ccc(=O)n3CC(=O)NCc3ccc(Cl)cc3)c2)CC1` showed a Papp of 828 ×10⁻⁶ cm/s.

`COc1ccccc1Nc1ccnc(N2CCN(C(=O)c3ccccc3Cl)CC2)n1` gave a Papp of 35.8 ×10⁻⁶ cm/s.

In the case of `COc1ccc(-c2ccc3ncc(Nc4ccncc4)n3n2)cc1OC`, the Papp was found to be 26.2 ×10⁻⁶ cm/s.

On to `COc1ccc(C2c3c(oc4ccc(Cl)cc4c3=O)C(=O)N2CCCN(C)C)cc1OC` (stereo not drawn), for which the Papp stood at 7.76 ×10⁻⁶ cm/s.

The compound `CC(C)CNc1ccnc(NCc2csc(-c3ccccc3)n2)n1` yielded a Papp of more than 1000 ×10⁻⁶ cm/s.

In the case of `Cc1ccc2c(c1)N(S(=O)(=O)c1cc(-c3onc(C)c3C)ccc1C)CCO2`, the Papp turned out to be 226 ×10⁻⁶ cm/s.

Compound `CC(C)c1ccccc1-c1nc2c(c(NCc3ccc(-c4cccnc4)cc3)n1)CNC2` had a Papp of 98.7 ×10⁻⁶ cm/s.

In turn, `Cc1nn2c(c1-c1ccccc1-c1ccccc1)N(Cc1ccc(O)cc1)CCC2` gave a Papp of 118 ×10⁻⁶ cm/s.

Consider `CC(C)(C)C(=O)N1CCN(c2nccc(Nc3ccccc3Cl)n2)CC1`, for which the Papp turned out to be 895 ×10⁻⁶ cm/s.

`O=C(Nc1ccc(Oc2ccnc3[nH]ccc23)c(F)c1)c1cccn(-c2ccc(F)cc2)c1=O` gave a Papp of 9.36 ×10⁻⁶ cm/s.

In turn, `CCOc1cc(=O)n2c(c1C(=O)Nc1cc(OC)c(Cl)cc1OC)CCCC2` gave a Papp of 68.7 ×10⁻⁶ cm/s.

`Cc1ccc(-n2nc3c(=O)n(CCCC(=O)NC(C)c4ccccc4)nc(C)c3c2C)cc1` (stereo not drawn) had a Papp of 562 ×10⁻⁶ cm/s.

For the compound `COc1ccc(-n2nc(C)c([C@@H]3C=C[C@@H](NCc4ccc(N(C)C)cc4)C3)c2C)cc1`, the Papp is more than 1000 ×10⁻⁶ cm/s.

Turning to `CCc1cccc(NC(=O)CSc2nc3ccccc3nc2N2CCCCC2)c1`, the Papp was found to be 351 ×10⁻⁶ cm/s.

The compound `Cc1ccc(S(=O)(=O)N2CCN(C(=O)c3cc4c(s3)CCC4)CC2)cc1` gave a Papp of more than 1000 ×10⁻⁶ cm/s.

With `CCOC(=O)c1ccc(N2C(=O)c3n[nH]c(-c4cccs4)c3C2c2ccc(Cl)cc2Cl)cc1` (stereo not drawn), the Papp is 316 ×10⁻⁶ cm/s.

As for `Cc1cccc(S(=O)(=O)c2cn(Cc3ccccc3)c3cc(N4CCCCC4C)c(F)cc3c2=O)c1` (stereo not drawn), the Papp stood at 485 ×10⁻⁶ cm/s.

In the case of `CNc1nc(-c2ccc3c(N)n[nH]c3c2)cc(N2C[C@@H](C(=O)NC3CCCCC3)CC[C@H]2C)n1`, the Papp is 26.1 ×10⁻⁶ cm/s.

For the compound `COc1ccc(-n2nc(C3CCCN(C(=O)Cc4ccccn4)C3)[nH]c2=O)cc1` (stereo not drawn), the Papp was 71.4 ×10⁻⁶ cm/s.

`CN(Cc1ccc(/C=C/C(=O)NO)cc1)CC12CC3CC(CC(C3)C1)C2` gave a Papp of 108 ×10⁻⁶ cm/s.

In turn, `COc1cc2ncnc(Nc3ccc(Oc4ccccc4)cc3)c2cc1OC` had a Papp of 981 ×10⁻⁶ cm/s.

Take `CCCN1C(CC(C)C)=NS(=O)(=O)c2cc(NC(=O)c3ccco3)ccc21`: the Papp came out at 239 ×10⁻⁶ cm/s.

In turn, `COc1ccc(-c2[nH]nc3ncc(-c4ccc(CO)cc4)nc23)cc1F` showed a Papp of 428 ×10⁻⁶ cm/s.

Regarding `CC(C)n1cc(-c2ccc3c(c2)N(C)CC3)c2c(NS(=O)(=O)c3ccn(C)n3)ccnc21`, the Papp is more than 1000 ×10⁻⁶ cm/s.

Compound `N#Cc1ccc(-c2ccc(CNc3ccc(C4CCNCC4)cc3)o2)cc1` gave a Papp of 236 ×10⁻⁶ cm/s.

In the case of `COCCNC(=O)c1ccc(-c2ncc3cnc(-c4cccc(F)c4)cn23)cc1`, the Papp came to 283 ×10⁻⁶ cm/s.

As for `Cc1cccc(N(C)c2nc3ccccc3c3nnc(C)n23)c1`, the Papp is more than 1000 ×10⁻⁶ cm/s.

`O=C(Nc1ccc(OC(F)(F)Cl)cc1)c1cnc(N2CC[C@@H](O)C2)c(-c2ccn[nH]2)c1` yielded a Papp of 16.8 ×10⁻⁶ cm/s.

Compound `CN1CCN(CCCN2c3ccccc3Sc3ccc(S(=O)(=O)N(C)C)cc32)CC1` had a Papp of 730 ×10⁻⁶ cm/s.

`Oc1ccc(CN2CC(CNc3ccccc3)C3(C2)CN(c2ccccc2)C3)cc1` (stereo not drawn) registered a Papp of more than 1000 ×10⁻⁶ cm/s.

The compound `CCOC(=O)C1CCN(c2ncc(-c3ccc4c(c3)OCCCO4)s2)CC1` had a Papp of more than 1000 ×10⁻⁶ cm/s.

`CCOc1ccc(CCNC(=O)c2cccc(C(=O)c3ccccc3)c2)cc1OCC`: the Papp was more than 1000 ×10⁻⁶ cm/s.

For the compound `Cc1ccc(-n2nc3c(=O)n(CCCC(=O)NCc4ccccc4F)nc(C)c3c2C)cc1`, the Papp is 291 ×10⁻⁶ cm/s.

The compound `COc1ccc(CN2CCc3c(c(=O)n4ncc(C(=O)N5CCN(c6ccccc6OC)CC5)c4n3C)C2)cc1` came in with an apparent permeability coefficient (Papp) of 324 ×10⁻⁶ cm/s.

With `Cc1ccc(-n2c(=O)c3oc4ccccc4c3n(CC(=O)Nc3ccc(F)c(Cl)c3)c2=O)cc1C`, the Papp was found to be 583 ×10⁻⁶ cm/s.

The compound `NCC(=O)Nc1cncc(-c2nn3c(=O)cc(N4CCNCC4)nc3s2)c1` came in with a Papp of 1.07 ×10⁻⁶ cm/s.

Regarding `O=C(O)c1ccc(N2C(=O)/C(=C/c3ccc(-c4ccc([N+](=O)[O-])cc4)o3)C=C2c2ccccc2)cc1`, the Papp is 37.5 ×10⁻⁶ cm/s.

For the compound `CN(C)c1cccc(-c2cnc(Nc3cccnc3)c3c2CCO3)c1`, the Papp is more than 1000 ×10⁻⁶ cm/s.

Take `FC(F)(F)c1ccccc1-c1nc(NCc2ccc(-c3cccnc3)cc2)c2ccccc2n1`: the Papp was 712 ×10⁻⁶ cm/s.

`COc1ccc(CNC(=O)CCCn2nc(C)c3c(C)n(-c4ccc(C)cc4)nc3c2=O)cc1OC` registered a Papp of 159 ×10⁻⁶ cm/s.

The compound `Cn1cnc2c(F)c(Nc3ccc(Br)cc3Cl)c(C(=O)NOCCO)cc21` had a Papp of 151 ×10⁻⁶ cm/s.
